Test [1] relates to leukocyte NADPH oxidase. In words: Effect on leukocyte NADPH oxidase (PMA-stimulated lucigenin chemiluminescence). Format: cell-based, rat. On the procedure: Blood was drawn from the abdominal aorta of normal male Wister rats (Japan SLC) and immediately mixed with an ice-cold lysis buffer at 42 mL of the buffer per 3 mL of the blood.
After 5 min, the mixture was centrifuged at 4° C., 1100 rpm for 5 min. The precipitate was suspended in an ice-cold Lysis buffer, and centrifuged again at 4° C., 1100 rpm for 5 min. This operation was repeated 3 times to obtain leukocytes. The obtained leukocytes were suspended in Krebs-Hepes buffer and the number of the cells was adjusted to 1×10^6/ml. 0.25 mM Lucigenin and the test agent were added, Phorbol 12-myristate 13-acetate (hereinafter to be indicated as “PMA”, SIGMA) was further added, and the chemiluminescence value was measured at 37° C. for 10 min.
The inhibitory rate (%) was calculated by the following formula: inhibitory rate (%)=100−[(A−C)/(B−C))×[…] wherein A is the total chemiluminescence value of the leukocyte suspension with the addition of the test compound, B is the total chemiluminescence value of the leukocyte suspension (control) without addition of the test compound, and C is the total chemiluminescence value of the leukocyte suspension without stimulation with PMA.

Test [2] concerns NAD(P)H oxidase in diabetic rat aorta. In words: Aorta NAD(P)H oxidase inhibitory effect, test compound added to aorta ring specimen in vitro. Format: biochemical. As for the experimental part:
This ring specimen was preincubated in Krebs-Hepes buffer containing the test compound (compound A, compound B or DPI (SIGMA)) at 37° C. for 10 min, and then transferred to Krebs-Hepes buffer containing 0.25 mM lucigenin. […] The total value of chemiluminescence was calculated from AUC of the curve drawn by plotting the chemiluminescence value (vertical axis) relative to the measurement time (horizontal axis). The obtained chemiluminescence value was divided by the wet weight of the vascular ring specimen and standardized to the superoxide anion production per aorta unit weight.

The test system is the same in test [3]. In words: NAD(P)H oxidase activity (superoxide anion production, lucigenin chemiluminescence) in aorta of streptozotocin diabetic rats after oral administration. Format: in vivo. To be noted: once a day for 3 days. On the procedure: Streptozotocin (40 mg/kg) dissolved in 0.05 M citric acid buffer (pH 4.5) was administered into the tail vein of male Wistar rats (Japan SLC) to prepare diabetic rats. At 1 week to 8 weeks from the intravenous injection of streptozotocin, blood was drawn from the tail vein using a capillary treated with heparin, which was immediately cooled with ice and centrifuged at 3000 rpm, 15 min, 4° C. to give serum. The blood glucose level was measured by enzyme assay using a glucose measurement kit “GLU neo sinotest” (sinotest) and a microplate reader (SPECTRA MAX250, Molecular Devices).
The NAD(P)H oxidase activity was measured by the following method, which was modified by the method of the David. G. Harrison et al. (J. Clin. Invest. 91, 2546-2551, 1993), at 4 days from the start of the test, with superoxide anion production in aorta as an index.
To be specific, normal rat or diabetic rat free of the above-mentioned treatment was exsanguinated from the abdominal aorta, their thoracic aorta was removed. The removed thoracic aorta was immersed in Krebs-Hepes buffer and marginal tissues were removed to prepare an about 5 mm ring specimen. This ring specimen was preincubate in Krebs-Hepes buffer at 37° C. for 10 min and transferred to Krebs-Hepes buffer containing 0.25 mM lucigenin (SIGMA). 500 μM NADH (SIGMA) was added and chemiluminescence value (chemiluminescence: unit RLU: relative light units) was measured using a luminometer (MULTI-BIOLUMAT LB9505C, Warrack.Berthold) at 37° C. for 10 min. The total value of chemiluminescence was calculated from the area under the curve (hereinafter to be referred to as “AUC”) drawn by plotting the chemiluminescence value (vertical axis) relative to the measurement time (horizontal axis). The measured total value of chemiluminescence was divided by the wet weight of the vascular ring specimen and standardized to the superoxide anion production per aorta unit weight.
The inhibitory rate (%) was calculated from the following formula: inhibitory rate (%)=100−[(A−C)/(B−C)]×100
wherein A was the standardized value of chemiluminescence of diabetic rat administered with the test compound, B was the standardized value of chemiluminescence of diabetic rat without administration of the test compound, and C was the standardized value of chemiluminescence of normal rat without administration of the test compound.

Test [4] deals with NAD(P)H oxidase. In words: IL-8 production inhibitory effect in HUVEC cultured with 44 mM glucose. The format is cell-based, human. The settings on record: for IC50: from dose-effect line by least squares; for inhibitory rate (%) of IL-8 production: 8 days. As for the experimental part: NAD(P)HOxidase Inhibitory Effect (Method)
44 mM glucose was added to Human Umbilical Vein Endothelial Cells (Bio Whittaker, hereinafter to be indicated as “HUVEC”), and cells were cultured for 8 days. Then, a lysis buffer containing a surfactant, Triton-X Nonidet P-40, was added, and interleukin-8 (hereinafter to be indicated as “IL-8”) in the cell lysate, which had been produced by NAD(P)H oxidase was measured by an enzyme-linked […]. The test compound was added one day before glucose addition.
The inhibitory rate was calculated from the following formula: inhibitory rate (%)=100−[(A−C)/(B−C)]×100
wherein A is IL-8 production of a cell cultured in the presence of 44 mM glucose with addition of the test compound, B is IL-8 production of a cell cultured in the presence of 44 mM glucose without addition of the test compound, and C is IL-8 production of a cell cultured in the absence of 44 mM glucose and the test compound. The IC50 value was calculated from the dose-effect line drawn by the least squares method based on the obtained inhibitory rate.

Setting [5] is: test compound concentration 0.01 μM.
Setting [6] is: test compound concentration 0.1 μM.
[7] abbreviates: test compound concentration 1 μM.

Take `c1ccc2c(c1)[I+]c1ccccc1-2` [DPI, diphenyleneiodonium, reference compound]: in test [1] (200 μg/mL, PMA-stimulated rat leukocytes, mean ± standard error), the “inhibitory rate (%), leukocyte NADPH oxidase” value worked out at 106.7 ± 0.2%. In addition, the “inhibitory effect on leukocyte NADPH oxidase” value in test [1] (result in words) is given as “showed an inhibitory effect on leukocyte NADPH oxidase”. The “inhibitory rate (%)” value in test [2] (200 μM added to aorta ring in vitro) is reported as 45.1%. In test [2] (200 μM added to aorta ring in vitro, mean ± standard error), the “chemiluminescence (×10^5 RLU/wet weight of aorta)” value is 5.2 ± 1.1 ×10^5 RLU/wet weight of aorta. Besides, the “NAD(P)H oxidase inhibitory effect on aorta ring in vitro” value in test [2] (result in words) was “showed an NAD(P)H oxidase inhibitory effect”.

For the molecule `O=C(O)c1nn(-c2ccccc2)c2ccccc2c1=O` [compound C], the “inhibitory rate (%), NAD(P)H oxidase in diabetic rat aorta” value in test [3] (0.01 mg/kg oral) is 45%; in test [3] (0.1 mg/kg oral), 90%. The IC50 (as a rule, the concentration that inhibits the measured activity by half) in test [4] was determined as 15.4 nM. Moreover, the “inhibitory rate (%) of IL-8 production” value in test [4] (setting [5]) is listed as −2.5%; in test [4] (setting [6]), 53.7%; in test [4] (setting [7]) it was 97.7%.

Consider `NC(=O)c1nn(-c2ccccc2)c2ccccc2c1=O` [compound D], for which the “inhibitory rate (%), NAD(P)H oxidase in diabetic rat aorta” value in test [3] (0.01 mg/kg oral) was 44%; in test [3] (0.1 mg/kg oral), 72%. The molecule also registered an IC50 in test [4] of 11.1 nM. For the same molecule, the “inhibitory rate (%) of IL-8 production” value in test [4] (setting [5]) amounted to 45.4%; in test [4] (setting [6]), 98.3%; in test [4] (setting [7]), 100%.

The molecule `CCOC(=O)c1nn(-c2ccccc2)c2ccccc2c1=O` [compound E] showed an IC50 in test [4] of less than 10 nM. Moreover, the “inhibitory rate (%) of IL-8 production” value in test [4] (setting [5]) came to 96.3%; in test [4] (setting [7]), 91.0%.

Molecule `N#Cc1nn(-c2ccccc2)c2ccccc2c1=O` [compound F] gave an IC50 in test [4] of 943 nM. Also, the figures for the “inhibitory rate (%) of IL-8 production” value in test [4] (setting [5]), in test [4] (setting [6]) and in test [4] (setting [7]) were 0%, 0% and 54.5%, respectively.

In test [4], `N/C(=N\O)c1nn(-c2ccccc2)c2ccccc2c1=O` [compound G] came in with an IC50 of 219 nM. Further, the “inhibitory rate (%) of IL-8 production” value is given as 39.7% in test [4] (setting [5]), 43.9% in test [4] (setting [6]) and 57.4% in test [4] (setting [7]).

In test [4], `Cc1cc(C)n(-c2nnc(-c3ccccc3)c3ccccc23)n1` [compound H] gave an IC50 of 69 nM. Also, the “inhibitory rate (%) of IL-8 production” value in test [4] (setting [5]) is listed as 27.6%; in test [4] (setting [6]), 49.9%; in test [4] (setting [7]), 83.0%.

For the origin of these results see patent US20070082910A1, “Specific nad(p)h oxidase inhibitor” (Mitsubishi Pharma Corporation, priority 2003, published 2007).
